From US20030091601A1, “Use of topical arginine to enhance wound healing” (ABAT Inc., priority 2001, published 2003)

Tested on: wound site
Test: Hydroxyproline (OHP) content of subcutaneous PVA sponges fed by mini-osmotic pump at a dorsal skin incision, index of wound reparative collagen accumulation
Format: in vivo, rats
Conditions: for OHP (collagen synthesis): day 14 post-wounding, mean±SEM
Description: Twenty-eight (28) male adult rats were obtained from a commercial breeder. Rats were housed individually in stainless steel cages at a constant temperature (25°±1° C.) and relative humidity (40-50%). The cages were kept in a room with a twelve-hour light-twelve-hour dark cycle. All animals were allowed at least one week of acclimatization to the laboratory conditions prior to use in the experiments. During this time, they were fed a standard laboratory chow and drank tap water ad libitum.
After the period of acclimatization, the rats were randomly placed into four groups, seven rats per group. Under pentobarbital anesthesia, their backs were shaved and scrubbed with an organic iodine solution and a dorsal skin incision was made. Subcutaneously at the skin incision, a mini-osmotic pump (model 2002, 0.5 μl/hr, Alzet Co.) attached to a polyvinyl alcohol sponge was inserted. Pumps were filled either with PBS or various solutions of arginine in PBS as indicated on Table 1. The rats tolerated the procedure well and recovered uneventfully.
The 1M solution delivers 2 mg/animal/day into the sponge. On the fourteenth day post-wounding, rats were sacrificed with an overdose of pentobarbital. The pelt containing the healing scar was excised. The PVA sponges were removed, carefully cleared of surrounding tissue and frozen at −20° C. for subsequent determination of hydroxyproline content as an index of wound reparative collagen accumulation using the method of Woessner. See J. Woessner, Determination of Hydroxproline in Tissue and Protein Samples Containing Small Proportions of this Amino Acid, Biochem. Biophys., Vol.93, p. 440 (1961).
Twenty (20) male adult rats were obtained from a commercial breeder. As in Experimental Example 1, rats were housed individually in stainless steel cages at a constant temperature (25°±1° C.) and relative humidity (40-50%). The cages were kept in a room with a twelve hour light-twelve hour dark cycle. All animals were allowed at least one week of acclimatization to the laboratory conditions prior to use in the experiments. During this time, they were fed a standard laboratory chow and drank tap water ad libitum.
After the period of acclimatization, the rats were randomly placed into two groups of ten rats. Under pentobarbital anesthesia, the rats' backs were shaved and scrubbed with an organic iodine solution and a dorsal skin incision was made. As in Experimental Example 1, a mini-osmotic pump (model 2002, 0.5 μl/hr, Alzet Co.) attached to a polyvinyl alcohol sponge was inserted subcutaneously at the incision site. Pumps were filled either with PBS or a solution of 1M arginine in PBS as indicated on Table 3. The rats tolerated the procedure well and recovered uneventfully.
Twenty-one (21) male adult rats were obtained from a commercial breeder. As in Example Experiments 1 and 2, rats were housed individually in stainless steel cages at a constant temperature (25°±1° C.) and relative humidity (40-50%). The cages were kept in a room with a twelve hour light-twelve hour dark cycle. All animals were allowed at least one week of acclimatization to the laboratory conditions prior to use in the experiments. During this time, they were fed a standard laboratory chow and drank tap water ad libitum.
After the period of acclimatization, the rats were randomly placed into two groups, eight (8) rats were placed into Group 1 and treated with PBS only and thirteen (13) rats were placed into Group 2 and treated with 1M omithine in PBS. Under pentobarbital anesthesia, the rats' backs were shave and scrubbed with an organic iodine solution and a dorsal skin incision was made. Subcutaneously at the skin incision, a mini-osmotic pump (model 2002, 0.5 μl/hr, Alzet Co.) attached to a polyvinyl alcohol sponge was inserted. The mini-osmotic pumps were filled either with PBS or a solution of 1M omithine in PBS as indicated on Table 5 below. The rats tolerated the procedure well and recovered uneventfully. […]

Compound | increase in collagen biosynthesis accumulation compared to the PBS (control) group (Experimental Example 1, arginine 0.01M) | OHP (collagen synthesis) (Experimental Example 1, arginine 0.01 M in PBS by mini-osmotic pump, PBS control 569 ± 27) | increase in collagen biosynthesis accumulation compared to the PBS (control) group (Experimental Example 1, arginine 0.1M) | OHP (collagen synthesis) (Experimental Example 1, arginine 0.1 M in PBS by mini-osmotic pump, PBS control 569 ± 27) | increase in collagen biosynthesis accumulation compared to the PBS (control) group (Experimental Example 1, arginine 1M) | OHP (collagen synthesis) (Experimental Example 1, arginine 1 M in PBS by mini-osmotic pump (2 mg/animal/day), PBS control 569 ± 27) | increase in collagen biosynthesis accumulation compared to the PBS (control) group (Experimental Example 2, arginine 1M) | OHP (collagen synthesis) (Experimental Example 2, arginine 1 M in PBS by mini-osmotic pump (2 mg/animal/day), PBS control 574 ± 43) | increase in collagen biosynthesis accumulation compared to the PBS (control) group (Experimental Example 3, ornithine 1M) | OHP (collagen synthesis) (Experimental Example 3, ornithine 1 M in PBS by mini-osmotic pump, PBS control 588 ± 45)
N=C(N)NCCC[C@H](N)C(=O)O [Arginine, arginine] | ≥ 10% | 633 ± 54 μg/100 mg sponge | ≥ 10% | 698 ± 74 μg/100 mg sponge | over 60% | 928 ± 55 μg/100 mg sponge | over 30% | 797 ± 48 μg/100 mg sponge | – | –
NCCC[C@H](N)C(=O)O [Ornithine, ornithine] | – | – | – | – | – | – | – | – | over 45% | 854 ± 71 μg/100 mg sponge
